Measured values: patent publication US20100298141A1, “SUBSTITUTED PYRIDINE N-OXIDE HERBICIDES” (E. I. DU PONT DE NEMOURS AND COMPANY, priority 2007, published 2010)

What was measured:
giant foxtail [1] = experiment: Test A pre-/postemergence greenhouse test; assay type: in vivo, Setaria faberi; details: for Plant response rating, Foxtail, Giant: 0 to 100 scale where 0 is no effect and 100 is complete control; for Foxtail, Giant plant response rating: 0 to 100 scale
In short: (§1)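 Untreated controls served as the reference for visual injury ratings taken about ten days after spraying. The non-phytotoxic solvent/surfactant formulation was applied preemergence to seeded loam and sand and postemergence to plants two to ten cm high.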

velvetleaf = experiment: Test A pre-/postemergence greenhouse test; assay type: in vivo, Abutilon theophrasti; details: for Velvetleaf plant response rating: 0 to 100 scale
In short: as §1

wheat = experiment: Test A pre-/postemergence greenhouse test; assay type: in vivo, Triticum aestivum; details: for Wheat plant response rating: 0 to 100 scale
In short: as §1

corn = experiment: Test A pre-/postemergence greenhouse test; assay type: in vivo, Zea mays; details: for Plant response rating, Corn: 0 to 100 scale where 0 is no effect and 100 is complete control; for Corn plant response rating: 0 to 100 scale
In short: as §1

downy brome = experiment: Test C pre-/postemergence test; assay type: in vivo, Bromus tectorum
In short: (§2)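 Seeds were planted and treated preemergence with test chemical in a non-phytotoxic solvent mixture containing surfactant. Postemergence applications of the same formulation went onto plants 2 to 18 cm tall (1- to 4-leaf stage). A dash marks no test result.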

catchweed bedstraw = experiment: Test C pre-/postemergence test; assay type: in vivo, Galium aparine
In short: as §2

bermudagrass = experiment: Test C pre-/postemergence test; assay type: in vivo, Cynodon dactylon
In short: as §2

Surinam grass = experiment: Test C pre-/postemergence test; assay type: in vivo, Brachiaria decumbens
In short: as §2

crabgrass = experiment: Test C pre-/postemergence test; assay type: in vivo, Digitaria sanguinalis
In short: as §2

giant foxtail [2] = experiment: Test C pre-/postemergence test; assay type: in vivo, Setaria faberii
In short: as §2

johnsongrass = experiment: Test C pre-/postemergence test; assay type: in vivo, Sorghum halepense
In short: as §2

lambsquarters = experiment: Test C pre-/postemergence test; assay type: in vivo, Chenopodium album
In short: as §2

morningglory = experiment: Test C pre-/postemergence test; assay type: in vivo, Ipomoea coccinea
In short: as §2

pigweed = experiment: Test C pre-/postemergence test; assay type: in vivo, Amaranthus retroflexus
In short: as §2

soybean = experiment: Test C pre-/postemergence test; assay type: in vivo, Glycine max
In short: as §2

rice = experiment: Test C flooded paddy test; assay type: in vivo, Oryza sativa; details: Flood
In short: (§3)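 Visual injury ratings against untreated controls, taken 13 to 15 days after compound was added to paddy water standing 3 cm above the soil.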

barnyardgrass = experiment: Test C flooded paddy test; assay type: in vivo, Echinochloa crus-galli; details: Flood
In short: as §3

[3] = Postemergence, 500 g ai/ha, 0 is no effect, 100 is complete control
[4] = Preemergence, 125 g ai/ha, 0 no effect, 100 complete control
[5] = Postemergence, 125 g ai/ha, 0 to 100 scale where 0 is no effect and 100 is complete control
[6] = Preemergence, 500 g ai/ha, 0 no effect, 100 complete control
[7] = 62 g ai/ha, Preemergence, scale 0 to 100
[8] = 125 g ai/ha, preemergence, scale 0 (no effect) to 100 (complete control)
[9] = Preemergence, 31 g ai/ha, scale 0 to 100 (0 no effect, 100 complete control)
[10] = preemergence, 250 g ai/ha, scale 0 (no effect) to 100 (complete control)
[11] = 62 g ai/ha, scale 0 to 100 (0 no effect, 100 complete control)
[12] = 250 g ai/ha, scale 0 to 100, 0 no effect, 100 complete control, 13 to 15 days

Q: What does the source list for `Cn1nc(C(F)(F)C(F)(F)F)c(C[S+]([O-])c2ccc(Cl)c[n+]2[O-])c1OCC(F)(F)F` (stereo not shown) [Compound 92]?
A: Plant response rating, Foxtail, Giant (giant foxtail [1]; Postemergence, 125 g ai/ha): 80; Foxtail, Giant plant response rating (giant foxtail [1]; [3]): 90; Foxtail, Giant plant response rating (giant foxtail [1]; [4]): 90; Plant response rating, Foxtail, Giant (giant foxtail [1]; Preemergence, 500 g ai/ha): 100; Plant response rating, Velvetleaf (velvetleaf; [5]): 50; Velvetleaf plant response rating (velvetleaf; [3]): 90; Velvetleaf plant response rating (velvetleaf; [4]): 30; Velvetleaf plant response rating (velvetleaf; [6]): 100; Plant response rating, Wheat (wheat; [5]): 70; Wheat plant response rating (wheat; [3]): 70; Wheat plant response rating (wheat; [4]): 70; Wheat plant response rating (wheat; [6]): 90; Plant response rating, Corn (corn; Postemergence, 125 g ai/ha): 70; Corn plant response rating (corn; [3]): 80; Corn plant response rating (corn; [4]): 60; Plant response rating, Corn (corn; Preemergence, 500 g ai/ha): 90; Bromegrass, Downy plant response rating (downy brome; [7]): 70; Bromegrass, Downy plant response rating (downy brome; [8]): 85; Plant response rating, Bromegrass, Downy (downy brome; [9]): 50; Bromegrass, Downy plant response rating (downy brome; [10]): 100; Galium plant response rating (catchweed bedstraw; [7]): 80; Galium plant response rating (catchweed bedstraw; [8]): 95; Galium plant response rating (catchweed bedstraw; [10]): 100; Bermudagrass plant response rating (bermudagrass; 62 g ai/ha, Preemergence, scale 0 to 100 (0 no effect, 100 complete control)): 100; Bermudagrass plant response rating (bermudagrass; [8]): 100; Plant response rating, Bermudagrass (bermudagrass; [9]): 100; Bermudagrass plant response rating (bermudagrass; [10]): 100; Surinam Grass plant response rating (Surinam grass; [7]): 98; Surinam Grass plant response rating (Surinam grass; [8]): 100; Plant response rating, Surinam Grass (Surinam grass; [9]): 70; Surinam Grass plant response rating (Surinam grass; [10]): 100; Crabgrass, Large plant response rating (crabgrass; [7]): 98; Crabgrass, Large plant response rating (crabgrass; [8]): 100; Plant response rating, Crabgrass, Large (crabgrass; [9]): 95; Crabgrass, Large plant response rating (crabgrass; [10]): 100; Foxtail, Giant plant response rating (giant foxtail [2]; [7]): 100; Foxtail, Giant plant response rating (giant foxtail [2]; [8]): 100; Plant response rating, Foxtail, Giant (giant foxtail [2]; [9]): 98; Foxtail, Giant plant response rating (giant foxtail [2]; [10]): 100; Johnsongrass plant response rating (johnsongrass; [7]): 98; Johnsongrass plant response rating (johnsongrass; [8]): 100; Plant response rating, Johnsongrass (johnsongrass; [9]): 80; Johnsongrass plant response rating (johnsongrass; [10]): 100; Lambsquarters plant response rating (lambsquarters; [7]): 100; Lambsquarters plant response rating (lambsquarters; [8]): 100; Plant response rating, Lambsquarters (lambsquarters; [9]): 100; Lambsquarters plant response rating (lambsquarters; [10]): 100; Morningglory plant response rating (morningglory; [7]): 80; Morningglory plant response rating (morningglory; [8]): 85; Plant response rating, Morningglory (morningglory; [9]): 0; Morningglory plant response rating (morningglory; [10]): 100; Pigweed plant response rating (pigweed; [7]): 100; Pigweed plant response rating (pigweed; [8]): 100; Plant response rating, Pigweed (pigweed; [9]): 80; Pigweed plant response rating (pigweed; [10]): 100; Plant response rating, Soybean (soybean; [9]): 0; Soybean plant response rating (soybean; [10]): 80; Plant response rating, Rice (rice; [11]): 30; Plant response rating, Rice (rice; [12]): 50; Plant response rating, Barnyardgrass (barnyardgrass; [11]): 0; Plant response rating, Barnyardgrass (barnyardgrass; [12]): 75
